Each cell line was assayed with O=C(Nc1cc(C(F)(F)F)cc(C(F)(F)F)c1)c1cc(Cl)ccc1O [IMD-0354] + Cc1nc(Nc2ncc(C(=O)Nc3c(C)cccc3Cl)s2)cc(N2CCN(CCO)CC2)n1 [Dasatinib] (partner 0.075 µM) (assay: relative viability (nuclei count vs DMSO), 5 days (fraction); higher = more cells survive). Settings: first compound 0.04 µM.
Summary of the method: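 Lung cancer cell lines were seeded in 1536-well plates and dosed by pin tool the next day, with either a single drug or a fixed anchor-drug dose combined with five library-drug doses (not always all listed) spaced in √10 steps. Five days later, one step fixed the cells and stained their nuclei (final 0.05% Triton X-100, 1% formaldehyde, 1 ug/ml Hoechst), and nuclei were counted on 4× images. Relative viability is the nuclei count in treated wells divided by the count in vehicle wells, and each value is the median of duplicate plates.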

Point of comparison: NCI-H647, relative viability 0.263. Against it:
- COR-L23 — higher, 0.426
- COR-L 105 — higher, 0.401
- LOU-NH91 — higher, 0.616
- ChaGo-K-1 — higher, 0.635
- NCI-H2405 — lower, 0.213
- HOP-62 — higher, 0.629
- LU99A — higher, 0.573
- BEN — higher, 0.319
- HARA — higher, 0.324
- HCC-78 — higher, 0.429
- NCI-H322M — lower, 0.25
- LCLC-97TM1 — higher, 0.881
- NCI-H2009 — higher, 0.367
- A-427 — higher, 0.813
- NCI-H441 — higher, 0.611
- NCI-H661 — higher, 0.903
- NCI-H1734 — higher, 0.516
- NCI-H460 — higher, 0.518
- NCI-H2347 — higher, 0.321
- SW 1573 — higher, 0.763
- 201T — higher, 0.625
- NCI-H1915 — higher, 0.31
- HCC-827 — higher, 0.357
- LXF-289 — lower, 0.249
- NCI-H23 — higher, 0.836
- CAL-12T — higher, 0.356
- NCI-H1651 — higher, 0.515
- EPLC-272H — higher, 0.511
- NCI-H2228 — higher, 0.538
- NCI-H1355 — higher, 0.761

Same assay, conditions: first compound 0.1265 µM

Point of comparison: ChaGo-K-1, relative viability 0.59. Against it:
- H3255 — lower, 0.348
- COR-L23 — lower, 0.475
- COR-L 105 — lower, 0.316
- LOU-NH91 — lower, 0.555
- NCI-H2405 — lower, 0.242
- HOP-62 — higher, 0.637
- LU99A — higher, 0.648
- BEN — lower, 0.315
- HARA — lower, 0.253
- HCC-78 — lower, 0.466
- NCI-H322M — lower, 0.277
- LCLC-97TM1 — higher, 0.77
- NCI-H2009 — lower, 0.292
- A-427 — higher, 0.772
- NCI-H441 — lower, 0.583
- NCI-H661 — higher, 1.04
- NCI-H1734 — lower, 0.4
- NCI-H460 — lower, 0.529
- NCI-H2347 — lower, 0.308
- SW 1573 — lower, 0.449
- 201T — lower, 0.586
- NCI-H1915 — lower, 0.322
- HCC-827 — lower, 0.301
- LXF-289 — lower, 0.244
- NCI-H23 — higher, 0.82
- NCI-H647 — lower, 0.0872
- CAL-12T — lower, 0.387
- NCI-H1651 — lower, 0.363
- EPLC-272H — lower, 0.279
- NCI-H2228 — lower, 0.487
- NCI-H1355 — higher, 0.718

Same assay, conditions: first compound 0.4 µM

Point of comparison: HOP-62, relative viability 0.441. Against it:
- H3255 — lower, 0.264
- COR-L23 — lower, 0.37
- COR-L 105 — lower, 0.283
- LOU-NH91 — lower, 0.258
- ChaGo-K-1 — lower, 0.434
- NCI-H2405 — lower, 0.217
- LU99A — higher, 0.445
- BEN — lower, 0.246
- HARA — lower, 0.185
- HCC-78 — lower, 0.294
- NCI-H322M — lower, 0.248
- LCLC-97TM1 — lower, 0.386
- NCI-H2009 — lower, 0.263
- A-427 — lower, 0.346
- NCI-H441 — higher, 0.499
- NCI-H661 — higher, 0.533
- NCI-H1734 — lower, 0.343
- NCI-H460 — lower, 0.253
- NCI-H2347 — lower, 0.278
- SW 1573 — lower, 0.242
- 201T — higher, 0.479
- NCI-H1915 — lower, 0.129
- HCC-827 — lower, 0.348
- LXF-289 — lower, 0.207
- NCI-H23 — lower, 0.384
- NCI-H647 — lower, 0.132
- CAL-12T — lower, 0.255
- NCI-H1651 — lower, 0.26
- EPLC-272H — lower, 0.353
- NCI-H2228 — lower, 0.373
- NCI-H1355 — higher, 0.574

Same assay, conditions: first compound 1.265 µM

Point of comparison: H3255, relative viability 0.235. Against it:
- COR-L23 — lower, 0.0763
- COR-L 105 — higher, 0.246
- LOU-NH91 — lower, 0.102
- ChaGo-K-1 — lower, 0.2
- NCI-H2405 — higher, 0.249
- HOP-62 — lower, 0.213
- LU99A — lower, 0.113
- BEN — lower, 0.227
- HARA — lower, 0.103
- HCC-78 — higher, 0.275
- NCI-H322M — lower, 0.222
- LCLC-97TM1 — higher, 0.238
- NCI-H2009 — lower, 0.109
- A-427 — lower, 0.112
- NCI-H441 — lower, 0.191
- NCI-H661 — lower, 0.197
- NCI-H1734 — lower, 0.195
- NCI-H460 — lower, 0.0582
- NCI-H2347 — lower, 0.162
- SW 1573 — lower, 0.128
- 201T — higher, 0.283
- NCI-H1915 — lower, 0.109
- HCC-827 — the same, 0.235
- LXF-289 — lower, 0.0737
- NCI-H23 — higher, 0.275
- NCI-H647 — lower, 0.0483
- CAL-12T — lower, 0.0944
- NCI-H1651 — lower, 0.0542
- EPLC-272H — lower, 0.121
- NCI-H2228 — lower, 0.184
- NCI-H1355 — lower, 0.198

Same assay, conditions: first compound 4 µM

Point of comparison: LCLC-97TM1, relative viability 0.145. Against it:
- H3255 — higher, 0.282
- COR-L23 — higher, 0.201
- COR-L 105 — higher, 0.197
- LOU-NH91 — higher, 0.205
- ChaGo-K-1 — higher, 0.237
- NCI-H2405 — lower, 0.116
- HOP-62 — higher, 0.164
- LU99A — higher, 0.19
- BEN — higher, 0.165
- HARA — lower, 0.0678
- HCC-78 — higher, 0.232
- NCI-H322M — higher, 0.274
- NCI-H2009 — lower, 0.0808
- A-427 — lower, 0.137
- NCI-H441 — higher, 0.229
- NCI-H661 — higher, 0.234
- NCI-H1734 — lower, 0.134
- NCI-H460 — lower, 0.0193
- NCI-H2347 — higher, 0.229
- SW 1573 — lower, 0.0881
- 201T — higher, 0.346
- NCI-H1915 — lower, 0.14
- HCC-827 — higher, 0.248
- LXF-289 — lower, 0.068
- NCI-H23 — higher, 0.227
- NCI-H647 — lower, 0.0895
- CAL-12T — higher, 0.146
- NCI-H1651 — lower, 0.0748
- EPLC-272H — lower, 0.0731
- NCI-H2228 — higher, 0.202
- NCI-H1355 — higher, 0.294

Source: the supplement of paper PMC10307832
